Holding throughout (format): cell-based, murine
Assay [1] has as its system IL-6 mRNA in BV-2 cells. Description: LPS-induced IL-6 mRNA in BV-2 cells. The conditions noted are these: 10 μM, 6 h LPS stimulation. The protocol:
(§1) We stimulated BV-2 by lipopolysaccharide (LPS) and confirmed induction of pro-inflammatory cytokine IL-1β and IL-6 (data not shown). […] These effects were also confirmed by cytokine protein levels.
(§2) Figure 6 Effect of ABK5-1 on lipopolysaccharide (LPS)-induced cytokine production in microglia. BV-2 cells were pretreated with DMSO (<0.1%) or 1 or 10 μM ABK5-1 and stimulated with LPS. (A) mRNA levels of IL-1β and IL-6 after 6 h of LPS stimulation. (B) IL-1β protein concentration in the cell culture medium after 24 h of LPS stimulation. U.D. indicates under detection limit. (C) IL-6 protein concentration in the cell culture medium after 24 h of LPS stimulation. (D) Viability of BV-2 cells after ABK5-1 10 μM treatment. Results are indicated as the mean ± S.D. of three independent assays performed for each concentration. One-way ANOVA plus Dunnett’s post-hoc test were used and **** p < 0.0001 (versus reference). TEXT PRINTED IN THE PICTURE: (B) ABK5-1: IL-1β (pg/mL): U.D. (10 μM; LPS +)

In assay [2] the test system is IL-1β mRNA in BV-2 cells. In words: LPS-induced IL-1β mRNA in BV-2 cells. As to conditions: 10 μM, 6 h LPS stimulation. As to the method: as §1, §2
Assay [3] has as its system IL-6 production in BV-2 cells. In words: LPS-induced IL-6 protein in BV-2 culture medium. The conditions noted are these: 10 μM, 24 h LPS stimulation. The protocol:
as §1, §2

Assay [4] concerns IL-1β production in BV-2 cells. In words: LPS-induced IL-1β protein in BV-2 culture medium. As to conditions: 10 μM. The protocol:
as §1, §2

As for `CCOC(=O)c1ccccc1NC(=O)CN(c1ccc(C)cc1C)S(=O)(=O)c1ccccc1` [ABK5-1], in assay [1], the “decrease of IL-6 mRNA” value is reported as 48%. For the same molecule, in assay [2], the “decrease of IL-1β mRNA” value is recorded as 63%. Further, the “decrease of IL-6 cytokine concentration in the culture medium” value in assay [3] was 47%. In addition, the “IL-1β cytokine concentration in the culture medium (in words)” value in assay [4] (24 h LPS stimulation) is listed as “under the detection limit”. Also, the IL-1β entry in assay [4] (LPS +, 24 h, U.D. = under detection limit) is “U.D”.

(Values after article PMC8073686, “Characterization of Subtype Selective Cannabinoid CB2 Receptor Agonists as Potential Anti-Inflammatory Agents” (Pharmaceuticals, 2021).)
